Experimental data: ChEMBL document CHEMBL4118074, “Design, synthesis and structure-activity relationship studies of a novel focused library of 2,3,4-substituted oxazolidines with antiproliferative activity against cancer cell lines” (Eur J Med Chem, 2017)

Legend:
HL-60 = assay: Antiproliferative activity against human HL60 cells after 48 hrs by MTT assay; type: functional, cell-based; conditions: HL-60, 48 h
MDA-MB-231 = assay: Antiproliferative activity against human MDA-MB-231 cells after 48 hrs by MTT assay; type: functional, cell-based; conditions: MDA-MB-231, 48 h
MCF7 = assay: Antiproliferative activity against human MCF7 cells after 48 hrs by MTT assay; type: functional, cell-based; conditions: MCF7, 48 h
HCT-116 = assay: Antiproliferative activity against human HCT116 cells after 48 hrs by MTT assay; type: functional, cell-based; conditions: HCT-116, 48 h
Vero = assay: Cytotoxicity against African green monkey Vero cells after 48 hrs by MTT assay; type: cell-based; conditions: Chlorocebus sabaeus
Jurkat = assay: Antiproliferative activity against human Jurkat T cells after 48 hrs by MTT assay; type: functional, cell-based

| IC50 (HL-60) | IC50 (MDA-MB-231) | IC50 (MCF7) | IC50 (HCT-116) | IC50 (Jurkat) | Compound | IC50 (Vero) |
| --- | --- | --- | --- | --- | --- | --- |
| > 50 µM | > 50 µM | > 50 µM | > 50 µM | – | CC(C)(C)OC(=O)N[C@H](CO)COc1ccc([N+](=O)[O-])cc1 | > 100 µM |
| > 50 µM | > 50 µM | > 50 µM | > 50 µM | > 50 µM | CC(C)(C)C(=O)N1[C@@H](COc2ccc([N+](=O)[O-])cc2)COC1(C)C | > 100 µM |
| > 50 µM | > 50 µM | > 50 µM | > 50 µM | > 50 µM | CC(C)(C)CC(=O)N1[C@@H](COc2ccc([N+](=O)[O-])cc2)COC1(C)C | > 100 µM |
| > 50 µM | > 50 µM | > 50 µM | > 50 µM | > 50 µM | CN1CCN(C(=O)c2ccc(OC[C@H]3COC(C)(C)N3C(=O)OC(C)(C)C)cc2)CC1 | – |
